Read-outs that look alike come from different tables or passages of the source.
Assays:
[1] = tested on: kardiovaskuläre System und die Atmung; assay: Effect on cardiovascular system, respiration and muscle; assay type: in vivo
[2] = target: T1, Azetylcholinesterase des menschlichen Bluts (Homo sapiens, UniProt P22303); assay: Reactivation in vitro of erythrocyte cholinesterase inhibited by organophosphorus compounds (potentiometric titration); assay type: biochemical; conditions: reactivator 1.10^-4 M01/1, 25°C, pH 7,5
T1 construct: Cholinesterase des Grundgerüstes der Erythrozyten des menschlichen Bluts; from tissue; host or cells: human erythrocyte stroma (ghosts)
T1 sequence (P22303 other isoform, or with tags, fused parts or gaps): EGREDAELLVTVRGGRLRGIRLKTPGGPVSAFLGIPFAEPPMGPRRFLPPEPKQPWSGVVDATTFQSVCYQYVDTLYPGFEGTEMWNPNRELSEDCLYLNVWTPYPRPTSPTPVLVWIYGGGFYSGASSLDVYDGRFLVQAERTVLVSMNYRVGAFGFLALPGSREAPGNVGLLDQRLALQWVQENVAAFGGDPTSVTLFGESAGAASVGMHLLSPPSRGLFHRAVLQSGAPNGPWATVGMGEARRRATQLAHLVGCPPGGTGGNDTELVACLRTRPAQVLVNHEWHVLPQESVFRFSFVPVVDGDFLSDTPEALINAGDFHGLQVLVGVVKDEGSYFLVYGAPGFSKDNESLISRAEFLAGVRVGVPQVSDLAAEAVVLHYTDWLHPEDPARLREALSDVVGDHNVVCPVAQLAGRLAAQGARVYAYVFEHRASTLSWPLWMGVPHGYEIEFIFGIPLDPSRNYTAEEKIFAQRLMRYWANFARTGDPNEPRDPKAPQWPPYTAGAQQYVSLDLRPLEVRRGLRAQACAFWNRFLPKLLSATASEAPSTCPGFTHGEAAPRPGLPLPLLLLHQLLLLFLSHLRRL

[3] = Acute toxicity, single administration, dogs; conditions: dog, in vivo, sc; Hunde, subkutan; read-out: LD50 (mg/kg) und deren zuverlässige Grenzen P = 0,05
Text: (§1) Die Toxizität des erfindungsgemässen Arzneimittels bei der einmaligen Einführung (die akute Toxizität) wurde an geschlechtsreifen Tieren (an Mäusen, Ratten, Katzen, Hunden) bestimmt. Die Analyse der experimentellen Angaben für Mäuse und Ratten wurde nach der Methode der Probit-Analyse nach Litchfield und Wilcoxon, und für Hunde und Katzen nach der Methode der Anreicherung der Frequenz nach Behrens durchgeführt.
(§2) Die Toxizitätsparameter LD50 wurden für Mause bei der intraperitonealen und subkutanen Einführung, für Ratten bei der subkutanen, intramuskulären und enteralen Einführung, für Katzen bei der intramuskulären Einführung und für Hunde bei der subkutanen Einführung bestimmt.

Versuchstiere = assay: Prolonged administration to test animals (blood, urine); assay type: in vivo
Text: Nur zu einer späteren Beobachtungsperiode (4 bis 9 Tage) wurde eine unbedeutende Erhöhung der Gesamtleukozytenzahl nachgewiesen. Am 3. Tag trat auch eine geringe Aktivierung der Blutcholinesterase auf, in den nachfolgenden Beobachtungstagen (4 bis 9 Tage) überstieg jedoch die Aktivität des Ferments das Ausgangsniveau nicht.
Die morpholigischen Untersuchungen der inneren Organe der Versuchstiere legten keine pathologischen Veränderungen im Vergleich zur Kontrolle an den Tag.

[4] = Acute toxicity, single administration, rats; conditions: rat, in vivo, Ratten, read-out: LD50 (mg/kg) und deren zuverlässige Grenzen P = 0,05
[5] = target: T2, Butyrylcholinesterase des Rattengehirns (Rattus norvegicus, UniProt Q9JKC1); assay: Histochemical study of butyrylcholinesterase activity in rat brain; assay type: in vivo, Ratten
T2 construct: from tissue; host or cells: rat brain sections (glia, capillaries) after in vivo dosing
T2 sequence (Q9JKC1 24-597): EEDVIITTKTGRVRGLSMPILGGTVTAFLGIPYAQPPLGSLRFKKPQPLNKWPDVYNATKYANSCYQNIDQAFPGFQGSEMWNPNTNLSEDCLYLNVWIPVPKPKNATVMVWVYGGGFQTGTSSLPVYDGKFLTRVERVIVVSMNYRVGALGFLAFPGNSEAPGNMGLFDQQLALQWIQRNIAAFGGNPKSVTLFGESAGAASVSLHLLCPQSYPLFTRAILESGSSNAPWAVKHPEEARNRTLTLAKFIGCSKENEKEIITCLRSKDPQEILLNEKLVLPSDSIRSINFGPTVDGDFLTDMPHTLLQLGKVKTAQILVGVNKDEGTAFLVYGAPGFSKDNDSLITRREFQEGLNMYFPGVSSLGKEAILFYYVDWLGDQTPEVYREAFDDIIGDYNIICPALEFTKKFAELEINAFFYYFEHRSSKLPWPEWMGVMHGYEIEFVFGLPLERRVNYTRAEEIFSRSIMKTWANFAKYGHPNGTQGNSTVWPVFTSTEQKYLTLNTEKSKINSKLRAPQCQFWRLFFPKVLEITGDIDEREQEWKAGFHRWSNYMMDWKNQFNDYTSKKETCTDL
Text: (§3) Nach den histochemischen Methoden wurde der Einfluss des erfindungsgemässen Arzneimittels auf die Aktivität der Azetyl- und Buty rylcholinesterase des Rattengehirns untersucht und es wurde gezeigt, dass dieser von der Dosis des Arzneimittels und der Einführungszeit abhängt. […] Die Fermenthemmung wird bis 2 Stunden lang beobachtet, nachher folgt eine unbedeutende Aktivierung der Azetylcholinesterase, die bis 24 Stunden aufrechterhalten bleibt.
Es muss hervorgehoben werden, dass die beobachteten Veränderungen der Aktivität des Ferments von keinem deutlich ausgeprägten Charakter sind.

[6] = tested on: Kranken mit akuten peroralen Vergiftungen mit verschiedenen phosphororganischen Insektiziden; assay: Clinical study in patients with acute oral poisoning by organophosphorus insecticides; assay type: in vivo, Menschen
Text: Das erfindungsgemässe Arzneimittel wurde in der Klinik an Kranken mit akuten peroralen Vergiftungen mit verschiedenen phosphororganischen Insektiziden untersucht. Insgesamt wurden 183 Menschen behandelt, die in die Klinik gelangten. Daraus befanden sich 26 Menschen in einer leichten, 48 Kranke - in einer mässigen und 75 Kranke in einer schweren Vergiftungsstufe. Das Alter der Geschädigten schwankte von 15 bis 76 Jahren. Die Zeit des Behandlungsbeginns betrug I bis 12 stunden nach der Einnahme des Insektizids und in 28 Fällen wurde die Behandlung vor der Hospitalisierung begonnen.
Die therapeutische Effektivität des erfindungsgemässen Arzneimittels wurde mit der ähnlichen Wirkung des wirksamsten bekannten Präparats TMB-4 verglichen (insgesamt 50 Menschen) .
Das erfindungsgemässe Arzneimittel wurde in Kombination mit Atropin neben aktiven Methoden der Detoxikation ausgenutzt, die die Giftentfernung aus dem Organismus bezweckten und das Durchwaschen des Magens, die Verordnung von Abführungsmitteln, Siphon- und Abführungsklystieren, die Beschleunigung der Diurese, aktive symptomatische und Erhaltungstherapie, allgemein stärkenden Behandlung, Massnahmen zur Korrektion der Störungen des säurig-alkalischen und wässrigen und Elektrolytzustands einschliessen. […]

[7] = target: T3, Azetylcholinesterase des Rattengehirns (Rattus norvegicus, UniProt P37136); assay: Histochemical study of acetylcholinesterase activity in rat brain; assay type: in vivo, Ratten
T3 construct: Azetyl- und Buty rylcholinesterase des Rattengehirns; from tissue; host or cells: rat brain sections after in vivo dosing
T3 sequence (P37136 32-614): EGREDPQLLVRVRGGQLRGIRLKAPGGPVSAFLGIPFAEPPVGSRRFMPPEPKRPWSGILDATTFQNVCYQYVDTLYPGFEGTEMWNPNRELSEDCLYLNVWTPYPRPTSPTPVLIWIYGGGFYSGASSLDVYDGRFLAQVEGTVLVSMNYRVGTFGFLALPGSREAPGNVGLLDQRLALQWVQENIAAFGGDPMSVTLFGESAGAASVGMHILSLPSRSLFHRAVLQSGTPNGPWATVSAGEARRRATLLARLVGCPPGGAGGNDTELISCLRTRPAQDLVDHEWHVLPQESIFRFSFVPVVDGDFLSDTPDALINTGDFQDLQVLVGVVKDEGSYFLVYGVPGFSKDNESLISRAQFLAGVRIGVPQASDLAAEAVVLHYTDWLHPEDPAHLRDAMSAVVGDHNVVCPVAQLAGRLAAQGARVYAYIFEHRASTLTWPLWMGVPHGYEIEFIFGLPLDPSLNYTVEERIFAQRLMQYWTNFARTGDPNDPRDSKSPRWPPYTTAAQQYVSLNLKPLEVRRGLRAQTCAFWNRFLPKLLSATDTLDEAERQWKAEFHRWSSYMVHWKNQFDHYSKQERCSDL
Text: as §3

[8] = Acute toxicity, single administration, cats; conditions: cat, in vivo, im; Katzen, intramuskulär; read-out: LD50 (mg/kg) und deren zuverlässige Grenzen P = 0,05
Text: as §1, §2

[9] = tested on: Gehirn der Tiere (Ratten); assay: Morphological and histochemical examination of the brain; assay type: in vivo; conditions: Dosen 5, 20 und 50 mg/kg; no haemorrhages
Protocol: Der Grad deren Ausgeprägtheit wird etwas höher und länger in den Gehirnstrukturen (3 Tage) bei einer Dosis des erfindungsgemässen Arzneimittels von 50 mg/kg aufrechterhalten, als bei Dosen von 5 und 20 mg/kg. Die Kapillarhyperämie wird durch keine Blutergüsse und Störungen des argyrophilen Gestells der Hirnblutgefässe begleitet. Die morphologische und histochemische Untersuchung des Rattengehirns, denen das erfindungsgemässe Arzneimittel in Dosen von 5, 20 und 50 mg/kg eingeführt wurde, gestattet, die erhaltenen Veränderungen als funktionelle einzuschätzen (die Schwankung der Aktivität der Azetylcholinesterase und der Butyrylcholinesterase, die […] Hyperämie), die von einer deutlichen Neurotropie des Arzneimittels zeugen.

[10] = Acute toxicity, single administration, mice; conditions: mouse, in vivo, Mäuse, read-out: LD50 (mg/kg) und deren zuverlässige Grenzen P = 0,05
Text: as §1, §2

C=CC[n+]1ccccc1C=NO [das erfindungsgemässe Arzneimittel, N-Allyl-2-pyridinaldoxiinbromid]
myotrope Wirkung ([1]; in vivo): keine myotrope Wirkung
arterieller Blutdruck ([1]; intravenöse Einführung (12 bis 15 mg/kg)): setzte unbedeutend für eine kürzere Zeit den arteriellen Blutdruck herab
Einfluss auf das kardiovaskuläre System und die Atmung ([1]; subkutane Einführung in hohen Dosen (10 und 20 mg/kg)): keinen Einfluss
activity at 100 µM ([2]; 0.5 h, pH 7, inhibited with O,O-Dimethyl-(2,2,2-trichlor-1-oxyäthyl) phosphonat, 0,5 h, read-out: Aktivität der Azetylcholinesterase in % (Reaktivationszeit in Stunden) 0,5): 53.6%
activity at 100 µM ([2]; 0.5 h, pH 7, inhibited with O,O-Dimethyl-S-(1,2-dikarbäthoxyäthyl)-dithiophosphat, 0,5 h, read-out: Aktivität der Azetylcholinesterase in % (Reaktivationszeit in Stunden) 0,5): 48.1%
activity at 100 µM ([2]; 1 h, pH 7, inhibited with O,O-Dimethyl-(2,2,2-trichlor-1-oxyäthyl) phosphonat, 1 h, read-out: Aktivität der Azetylcholinesterase in % (Reaktivationszeit in Stunden) 1): 72.2%
activity at 100 µM ([2]; 1 h, pH 7, inhibited with O,O-Dimethyl-S-(1,2-dikarbäthoxyäthyl)-dithiophosphat, 1 h, read-out: Aktivität der Azetylcholinesterase in % (Reaktivationszeit in Stunden) 1): 75%
activity at 100 µM ([2]; 2 h, pH 7, inhibited with O,O-Dimethyl-(2,2,2-trichlor-1-oxyäthyl) phosphonat, 2 h, read-out: Aktivität der Azetylcholinesterase in % (Reaktivationszeit in Stunden) 2): 72.3%
activity at 100 µM ([2]; 2 h, pH 7, inhibited with O,O-Dimethyl-S-(1,2-dikarbäthoxyäthyl)-dithiophosphat, 2 h, read-out: Aktivität der Azetylcholinesterase in % (Reaktivationszeit in Stunden) 2): 78.1%
LD50 [3]: 112 mg/kg
Einfluss auf den Bestand des peripheren Bluts (Versuchstiere; dauernde Anwendung, slight rise of leukocytes at 4 bis 9 Tage): keinen merklichen Einfluss
Harnbestand (Versuchstiere; längere Einführung): veränderte nicht den Harnbestand
LD50 ([4]; ip, intraperitoneal): 135 mg/kg
LD50 ([4]; po, enteral): 260 mg/kg
LD50 ([4]; sc, subkutan): 200 mg/kg
Aktivität der Butyrylcholinesterase in den Kapillaren aller Bildungen des Gehirns ([5]; bis 2 Tage lang, dose dependent, more marked at 50 mg/kg): unbedeutende Aktivierung des Ferments
Aktivität der Butyrylcholinesterase in den Nervenkittzellen des Gehirns ([5]; in allen untersuchten Konzentrationen): die Aktivität der Butyrylcholinesterase in den Nervenkittzellen des Gehirns nicht
Nebenerscheinungen und Kontraindikationen ([6]; Einzeldosis 0,075 g, Kurdosis 0,4 bis 1,6 g): keine Nebenerscheinungen und Kontraindikationen
Kennziffer der Funktion der Leber und der Stoffwechselprozesse ([6]; Eiweissfraktion, Bilirubin, Transaminasenaktivität, Blutzucker, Elektrolyt- und Gaswechsel): zu deren Normalisierung beiträgt
Einfluss auf die Aktivität der Azetyl- und Butyrylcholinesterase des Rattengehirns ([7]; Dosis 5 mg/kg, histochemical): keine Abweichung der Fermentaktivität von der Norm
Einfluss auf die Aktivität der Azetylcholinesterase ([7]; Dosis 20 mg/kg, except white matter of hemispheres and Formatio reticularis neurons (inhibition 30 min bis 2 Stunden)): verändert es auch im wesentlichen die Aktivität der Azetylcholinesterase nicht
Einfluss auf die Aktivität der Azetylcholinesterase ([7]; Dosis 50 mg/kg, several brain structures, inhibition bis 2 Stunden, then slight activation bis 24 Stunden): deutlicher ausgeprägte Veränderungen der Azetylcholinesteraseaktivität
Aktivität der Azetylcholinesterase in den Neuronen der Grosshirnrinde ([7]; Dosis 20 und 50 mg/kg): keine Veränderungen der Aktivität der Azetylcholinesterase festgestellt
LD50 [8]: 126 mg/kg
Histochemische Untersuchungen des Gehirns [9]: allgemeine unbedeutende Kapillarhyperämie
LD50 ([10]; ip, intraperitoneal): 64 mg/kg
LD50 ([10]; sc, subkutan): 115 mg/kg

Source: patent publication EP0364584A1, “ANTIDOTE FOR ORGANIC PHOSPHORUS COMPOUND POISONING” (priority 1988, dated 1989)
